Measured values reported in patent US20250180567A1, “METHOD FOR MEASURING GL[…] ANTIGEN PROTEIN OF HBV” (RCMG Inc., priority 2021, published 2025).

Tests used:
[1] = system: glycosylated recombinant HBs antigen protein; assay: sandwich ELISA of immobilized HBs antibody (HBsAgGi) and biotinylated lectins; assay type: binding, hepatitis B virus; conditions: FIG. 1; for detection of N-glycosylated S-HBs as a specific positive signal (ELISA absorbance): lectin-biotin 1 μg/mL, absorbance at 450 nm
Method: A purified antibody against HBs antigen protein (HBsAgGi) was immobilized on a plate, and a sandwich ELISA system was constructed to examine the optimal lectin to be used for detecting the capturedHBs antigen.
1) HBsAgGi (5 μg/mL) diluted with BSA (5 μg/mL)/PBS was added to a Nunc Immobilizer Amino Plate at a volume of 0.1 mL per well, and the plate was shaken at room temperature for 4 hours to immobilize the antibody. After washing twice with PBS-T, 0.3 mL of TBS was added per well and the plate was allowed to stand overnight at 4° C. for blocking. 2) After washing with PBS-T, glycosylated recombinant HBs antigen protein was diluted to 400 ng/ml with Sample dilution buffer (3% BSA/TBS-T), 0.1 mL thereof was added per well, and the plate was shaken at room temperature for 2.5 hours to be captured the antigen on the antibody solid-phased plate. In order to confirm the effect of the serum, recombinant HBs antigen to which 5% Normal human serum (NHS) was added was also treated in the same manner. 3) After washing the wells four times with PBS-T, the wells were reacted with the following lectins diluted with PBS-T at room temperature for 2 hours by shaking.
Jacalin-biotin (1 μg/mL), MAL II-biotin (1 μg/mL), RCA120-biotin (1 μg/mL), SNA-biotin (1 μg/mL), SSA-biotin (1 μg/mL), WGA-biotin (1 μg/mL) 4) After washing four times with PBS-T, the wells were reacted with Peroxidase-conjugated Streptavidin (1/20,000 dilution) or SSA-HRP (2 μg/mL) diluted with PBS-T at room temperature for 1 hour by shaking.
5) After washing the wells four times with PBS-T, 0.1 mL of 1Step Ultra TMB-ELISA was added per well and allowed to react for 5 min, then 50 μL of 1 mol/L sulfuric acid was added to stop the reaction. After the reaction was stopped, the absorbance at 450 nm was immediately measured by a plate reader.

glycosylated S-HBs = assay: lectin-antibody combination ELISA using sera from chronic hepatitis B patients; assay type: binding, hepatitis B virus; conditions: actual sera from chronic hepatitis B patients; lectin combined with S-HBs antibody
Method: This finding means that the glycosylated chains attached to S-HBs bind to WGA, which is completely unexpected.
Sera from untreated (no treatment history with nucleic acid analogs) chronic hepatitis B patients (HBs antigen positivity persisting for 6 months or more) (n=4) were used before (0) weeks) and 48 weeks after nucleic acid analog treatment. 1) HBsAg antibody (Hyb-824, 5 μg/mL) diluted with BSA (5 μg/mL)/PBS was added to a Nunc Immobilizer Amino Plate in an amount of 0.1 mL per well, and the plate was shaken at room temperature for 2 hours to immobilize the antibody. After washing twice with PBS-T, 0.3 mL of TBS was added per well and the wells were allowed to stand at 4° C. overnight for blocking. 2) After washing the wells with PBS-T, patient samples (before treatment and 48 weeks after treatment) were diluted 1/20 and 1/100 with Sample dilution buffer (3% BSA/TBS-T), and 0.1 mL was added per well, and the plate was shaken at room temperature for 1.5 hours to capture the antigen onto the antibody-immobilized plate. […] After the reaction was stopped, the absorbance at 450 nm was immediately measured by a plate reader.

Substance: Salvia sclarea agglutinin [SSA lectin]
- detection of N-glycosylated S-HBs as a specific positive signal (ELISA absorbance) [1]: could not detect
- specificity of detection of glycosylated S-HBs in patient sera (glycosylated S-HBs): unexpectedly low

Substance: wheat germ agglutinin [WGA lectin]
- effect of NHS added to the sample on lectin detection ([1]; 5% Normal human serum (NHS) added to recombinant HBs antigen): not affected
- reaction of the lectin with the solid-phased antibody ([1]; antibody HBsAgGi immobilized on plate): did not react
- detection of N-glycosylated S-HBs as a specific positive signal (ELISA absorbance) [1]: very clear detection
- specificity of detection of glycosylated S-HBs in patient sera (glycosylated S-HBs): could specifically detect
